Results reported in patent publication US11617748B2, “Meclozine derivatives and diclazuril derivatives for use in the prevention and/or the treatment of disorders associated to the inflammation induced by P. acnes” (priority 2016, dated 2023).
Where a name gives a salt, the structure may show the parent alone.

How the values were obtained:
Type in all cases: cell-based, human
[1] = tested on: HaCaT cells; experiment: MTT cell viability assay on HaCaT keratinocytes; details: for Evaluation of cell viability after treatment with meclozine analogues on keratinocytes: 24 h, 10 μM
Procedure: Cell culture, pretreatment and stimulation. The immortalized human keratinocyte cell line HaCaT, fibroblast MRC5 were grown in Dulbecco's modified Eagle's medium-Glutamax-I (DMEM) with 1 mM sodium pyruvate. […] DMEM and RPMI were supplemented with 0.1% and 10% heat-inactivated fetal calf serum (Invitrogen), and an antibiotic/antimycotic solution (10 U/ml Pencillin, 10 μg/ml Streptomycin, 0.25 μg/ml Amphoterin) at 37° C. in humidified atmosphere containing 5% CO2 as described (Life Technologie). Primary human keratinocytes (NHDK) and fibroblast (HDF) were grown in the KGM-Gold and in FGM-2 Bullet Kit, respectively, as described by the manufacturer (Lonza). The immortalized cell lines were routinely tested to assess the absence of Mycoplasma infection. Cells, cultivated in 6- or 96-well polystyrene plates, were pretreated with appropriate molecule solution for 1 to 48 h at 37° C. in the dark at the appropriate concentration. Then, for stimulation, cells were incubated for 15 min to 24 h with the P. acnes suspension adjusted at the appropriate concentration at 37° C. in 5% CO2. For experiences using an in vitro model of psoriasis, the primary human keratinocytes (NHDK) were grown in culture medium for 24 hours.
Cell viability assays. Viability of cells was estimated by using the MTT assay where cells were incubated with a 0.2% MTT solution in cell culture medium for 4 h at 37° C. The MTT solution was then discarded and DMSO added to solubilize the MTT-formazan cristals produced in living cells. After thorough mixing, the absorbance was measured at 540 nm.

[2] = tested on: IL-8 production; experiment: P. acnes-induced IL-8 production in HaCaT keratinocytes (ELISA); details: for Dose-dependent inhibition of IL-8 production by keratinocytes stimulated by P. acnes pre-treated with meclozine analogues: 10 μM; for Dose-dependent inhibition of IL-8 production by keratinocytes stimulated by P. acnes pre-treated with meclozine analogues / decrease of IL-8 production at 6.25 μM: 24 h pre-treatment; for decrease of IL-8 production at 6.25 μM: comparison with acne drugs (FIG. 8A); for effect on IL-8 production at 6.25 μM, in words: 24 h pre-treatment (FIG. 8A)
Procedure: Bacterial strain and conditions of growth. P. acnes strain 6919 was obtained from the American Type Culture Collection (Manassas, Va.) and P. acnes strains RON and PIE were isolated from patient with joint infection. All strains were grown under anaerobic conditions in reinforced clostridial liquid and solid medium (RCM) (Difco Laboratories, Detroit, Mich.). P. acnes was transferred from the bacterial stock onto RCM agar plate and incubated for 5 days under anaerobic condition by using a GasPak™ EZ Anaerobic Container System (Becton Dickinson & Co, Sparks Md., USA). A single colony was transferred into 100 ml RCM and grown as described above. Bacterial suspension was then store frozen at −80° C. in presence of 10% glycerol final. This stock was called «start stock» and used for all the experiments. For routine culture, 100 ml of RCM was used and bacteria were harvested after 5 days at 37° C. by centrifugation at 7,000×g for 10 min at 4° C. Pellets were pooled and washed in about 30 ml of cold sterile PBS [1.5 mM KH2PO4, 2.7 mM Na2HPO4.7H2O, 0.15 M NaCl (pH 7.4)] and centrifuged again as described above. Finally, the bacterial pellet was suspended in sterile PBS (1:10 from volume culture).
Cell culture, pretreatment and stimulation. The immortalized human keratinocyte cell line HaCaT, fibroblast MRC5 were grown in Dulbecco's modified Eagle's medium-Glutamax-I (DMEM) with 1 mM sodium pyruvate. The immortalized human monocytic cell line ThP1 was grown in Roswell Park Memorial Institute 1640 Medium-Glutamax-I (RPMI). DMEM and RPMI were supplemented with 0.1% and 10% heat-inactivated fetal calf serum (Invitrogen), and an antibiotic/antimycotic solution (10 U/ml Pencillin, 10 μg/ml Streptomycin, 0.25 μg/ml Amphoterin) at 37° C. in humidified atmosphere containing 5% CO2 as described (Life Technologie). Primary human keratinocytes (NHDK) and fibroblast (HDF) were grown in the KGM-Gold and in FGM-2 Bullet Kit, respectively, as described by the manufacturer (Lonza). The immortalized cell lines were routinely tested to assess the absence of Mycoplasma infection. Cells, cultivated in 6- or 96-well polystyrene plates, were pretreated with appropriate molecule solution for 1 to 48 h at 37° C. in the dark at the appropriate concentration. Then, for stimulation, cells were incubated for 15 min to 24 h with the P. acnes suspension adjusted at the appropriate concentration at 37° C. in 5% CO2. For experiences using an in vitro model of psoriasis, the primary human keratinocytes (NHDK) were grown in culture medium for 24 hours. The medium was removed and replaced with culture medium containing meclozine, diclazuril and JAK inhibitor (used as positive control) at the concentrations of 0.39, 0.78, 1.56, 3.12, 6.25 and 12.5 μM and the pro-inflammatory mixture M5 (combination of IL-17A, OSM, TNF-α, IL-22, IL-1α at 10 ng/ml) was added to the cells followed by an incubation for 48 or 72 hours.
(§1) ELISA. Human IL-1β, IL-8, hBD-2 and TNF-α protein concentration were measured in the supernatants of stimulated cells using various ELISA Sets (all from Ready-Set-Go from eBioscience, except hBD-2 measurements: Human DEFB4A/BD-2 ELISA Kit from LSBio) according to the manufacturer's instructions. We used serial dilutions of recombinant human IL-1β, IL-8, hBD-2 and TNF-α for standard curve. The optical density was determined at 450 nm at a wavelength correction of 540 nm.
Both molecules, diclazuril and meclozine, were purchased separately from Sigma and tested independently on immortalized keratinocytes HaCaT cell for their capacity to inhibit the IL-8 production in a dose-dependent manner. HaCaT cells were pre-treated with diclazuril and meclozine, at the concentrations ranging from 0.39 to 50 μM, for 24 h and then stimulated with P. acnes suspension as described in Materials and Methods. The production of IL-8 was measured on culture supernatant by ELISA and the viability of cells was estimated by MTT assay (FIG. 1).

[3] = tested on: IL-8 production; experiment: as above; details: HaCaT cells pre-treated 24 h, no P. acnes stimulation
[4] = tested on: hBD-2 production; experiment: hBD-2 production by M5-stimulated NHDK, in vitro psoriasis-like model (ELISA); details: NHDK + M5, 48 h, JAK inhibitor at 6.25 μM (positive control)
Procedure: (§2) Cell culture, pretreatment and stimulation.
as §1

[5] = tested on: IL-8 production; experiment: IL-8 production by M5-stimulated NHDK, in vitro psoriasis-like model (ELISA); details: NHDK + M5, 48 h, JAK inhibitor at 6.25 μM (positive control)
Procedure: as §2, §1

CN1CCN(C(c2ccccc2)c2ccc(Cl)cc2)CC1 (centres unmarked) [Chlorcyclizine hydrochloride]
Evaluation of cell viability after treatment with meclozine analogues on keratinocytes ([1]; human): 81%
Dose-dependent inhibition of IL-8 production by keratinocytes stimulated by P. acnes pre-treated with meclozine analogues ([2]; HaCaT): 54%

Fc1ccc(C(OCCN2CCN(CCCc3ccccc3)CC2)c2ccc(F)cc2)cc1 [GBR 12909 dihydrochloride]
Evaluation of cell viability after treatment with meclozine analogues on keratinocytes ([1]; human): 78%
Dose-dependent inhibition of IL-8 production by keratinocytes stimulated by P. acnes pre-treated with meclozine analogues ([2]; HaCaT): 78%

Cc1cccc(C)c1NC(=O)CN1CCN(CCCC(c2ccc(F)cc2)c2ccc(F)cc2)CC1 [Lidoflazine]
Evaluation of cell viability after treatment with meclozine analogues on keratinocytes ([1]; human): 107%
Dose-dependent inhibition of IL-8 production by keratinocytes stimulated by P. acnes pre-treated with meclozine analogues ([2]; HaCaT): 65%

COc1ccc(CN2CCN(C(c3ccc(F)cc3)c3ccc(F)cc3)CC2)c(OC)c1OC [Lomerizine]
Evaluation of cell viability after treatment with meclozine analogues on keratinocytes ([1]; HaCaT, MTT): 95%
Dose-dependent inhibition of IL-8 production by keratinocytes stimulated by P. acnes pre-treated with meclozine analogues ([2]; HaCaT): 58%

Cc1cc(-n2ncc(=O)[nH]c2=O)cc(Cl)c1Sc1ccc(Cl)cc1 [RCL PH000645-PH, PH000645-PH]
IL-8 production in pretreated cells without being stimulated [3]: no change
IC50 ([2]; Homo sapiens, HaCaT cells pre-treated 24 h, then stimulated with P. acnes, read-out: IC50 of inhibition of IL-8 production): ~3000 nM

COc1ccc(-c2ccc3cc(C(=O)O)ccc3c2)cc1C12CC3CC(CC(C3)C1)C2 [adapalene]
decrease of IL-8 production at 6.25 μM ([2]; HaCaT): 20%
IL-8 reduction at 12.5 μM ([2]; HaCaT, 12.5 μM, 24 h pre-treatment (FIG. 8B)): 90%

O=C(OOC(=O)c1ccccc1)c1ccccc1 [benzoyl peroxide]
toxicity at 6.25 μM, in words (MTT) ([1]; HaCaT, 6.25 μM, 24 h pre-treatment (FIG. 8A)): no toxicity
effect on IL-8 production at 6.25 μM, in words ([2]; HaCaT): very low none significative or no effect

CCC[C@@H]1C[C@@H](C(=O)N[C@@H]([C@H]2O[C@H](SC)[C@H](O)[C@@H](O)[C@H]2O)[C@H](C)Cl)N(C)C1 [clindamycine]
effect on IL-8 production at 6.25 μM, in words ([2]; HaCaT): very low none significative or no effect

CC[C@H]1OC(=O)[C@H](C)[C@@H](O[C@H]2C[C@@](C)(OC)[C@@H](O)[C@H](C)O2)[C@H](C)[C@@H](O[C@@H]2O[C@H](C)C[C@H](N(C)C)[C@H]2O)[C@](C)(O)C[C@@H](C)C(=O)[C@H](C)[C@@H](O)[C@]1(C)O [erythromycine]
effect on IL-8 production at 6.25 μM, in words ([2]; HaCaT): very low none significative or no effect

CC1=C(/C=C/C(C)=C/C=C/C(C)=C\C(=O)O)C(C)(C)CCC1 [isotretinoin]
decrease of IL-8 production at 6.25 μM ([2]; HaCaT): 5%

CC1=C(/C=C/C(C)=C/C=C/C(C)=C/C(=O)O)C(C)(C)CCC1 [retinoic acid]
decrease of IL-8 production at 6.25 μM ([2]; HaCaT): 5%

Jak Inhibitor I
inhibition of stimulated hBD-2 production [4]: 38%
inhibition of M5-stimulated IL-8 production [5]: 49%
